According to patent US20240287138A1, “CYCLIC PEPTIDES FOR INHIBITING TNF RECEPTOR 1 ACTIVITY” (Merck Sharp & Dohme LLC, priority 2023, published 2024):
pIC50, pKd: −log10 of the molar value. Numbered stars: 1 amine (or outer) side, 2 acyl side, 3 side chain; on linkers, the order of the positions; unused ones are H or OH. Square brackets hold non-standard residues; d marks the D form. Peptide text beside a SMILES is read from it. * marks the point of attachment. Trp(βS-Me,7-OMe) = COc1cccc2c([C@H](C)[C@H](N)C(=O)O)c[nH]c12; X44 = NC(=O)c1ccc([C@@H](O)[C@H](N[*:1])C(=O)[*:2])cc1; X28 = NC(=O)c1ccc([C@H](O)[C@H](N[*:1])C(=O)[*:2])cc1; Phe(4-SO2NH2) = N[C@@H](Cc1ccc(S(N)(=O)=O)cc1)C(=O)O; Phe(2-F,4-COOH) = N[C@@H](Cc1ccc(C(=O)O)cc1F)C(=O)O; Trp(7-CN) = N#Cc1cccc2c(C[C@H](N)C(=O)O)c[nH]c12; Trp(7-Cl) = N[C@@H](Cc1c[nH]c2c(Cl)cccc12)C(=O)O; Ala(pyrimidin-5-yl) = N[C@@H](Cc1cncnc1)C(=O)O; Phe(4-CONH2) = NC(=O)c1ccc(C[C@H](N)C(=O)O)cc1; Phe(4-COOH) = N[C@@H](Cc1ccc(C(=O)O)cc1)C(=O)O; X64 = O=C([C@H](Cc1n[nH]c2ncccc12)N[*:1])[*:2]; 4Pal(3S-Me) = C[C@@H](c1ccncc1)[C@H](N)C(=O)O; Trp(7-aza) = N[C@@H](Cc1c[nH]c2ncccc12)C(=O)O; Pip(5R-OH) = O=C(O)[C@@H]1CC[C@@H](O)CN1; X1 = O=C([C@@H]1CC[C@H](N[*:1])C1)[*:2]; Gly(But-3-enyl) = C=CCC[C@H](N)C(=O)O; Pip(4-aza) = O=C(O)[C@@H]1CNCCN1; 4Pal = N[C@@H](Cc1ccncc1)C(=O)O; NMeE = CN[C@@H](CCC(=O)O)C(=O)O; dHyp = O=C(O)[C@H]1C[C@H](O)CN1; aThr = C[C@H](O)[C@H](N)C(=O)O; Ahp(2) = CCCCC[C@H](N)C(=O)O; αMeS = C[C@](N)(CO)C(=O)O; Carboxymethyl = O=C(O)C*; Nle = CCCC[C@H](N)C(=O)O; Sar = CNCC(=O)O

Key:
[1] = target: T1, human soluble TNFR1 (sTNFR1) (Homo sapiens, UniProt P19438); experiment: Human sTNFR1-peptide displacement assay (LanthaScreen Eu TR-FRET binding assay)
T1 construct: made in house; host or cells: Sf21 (baculovirus)
T1 sequence (P19438 with tags, fused parts or gaps): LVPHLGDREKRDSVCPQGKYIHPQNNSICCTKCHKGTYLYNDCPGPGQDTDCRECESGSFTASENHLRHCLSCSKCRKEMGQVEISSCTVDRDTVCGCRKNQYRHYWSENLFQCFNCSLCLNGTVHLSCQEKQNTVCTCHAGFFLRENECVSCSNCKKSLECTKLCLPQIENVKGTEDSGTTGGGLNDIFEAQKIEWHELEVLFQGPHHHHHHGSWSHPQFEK
Outline: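 Readout is the 665/615 nm TR-FRET ratio (Eu anti-His donor, streptavidin-Alexa647 acceptor), normalized to DMSO and saturating displacer, fit by Morrison-based five-parameter logistic for Kd^app. His-tagged sTNFR1 (1-211) prebound to 100 nM biotinylated peptide SEQ ID NO.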

[2] = target: T2, TNFα-induced NF-κB signal transduction pathway (TNFR1 signaling) in THP-1 cells (Homo sapiens, UniProt P19438); experiment: THP-1 Lucia NF-κB reporter cell assay, inhibition of TNFα-induced NF-κB signaling; type: cell-based; details: THP-1 NF-κB Lucia reporter cells, 10 ng/mL TNFα, 16-18 h, secreted luciferase; read-out: THP-1 IC50
T2 sequence (P19438 30-455): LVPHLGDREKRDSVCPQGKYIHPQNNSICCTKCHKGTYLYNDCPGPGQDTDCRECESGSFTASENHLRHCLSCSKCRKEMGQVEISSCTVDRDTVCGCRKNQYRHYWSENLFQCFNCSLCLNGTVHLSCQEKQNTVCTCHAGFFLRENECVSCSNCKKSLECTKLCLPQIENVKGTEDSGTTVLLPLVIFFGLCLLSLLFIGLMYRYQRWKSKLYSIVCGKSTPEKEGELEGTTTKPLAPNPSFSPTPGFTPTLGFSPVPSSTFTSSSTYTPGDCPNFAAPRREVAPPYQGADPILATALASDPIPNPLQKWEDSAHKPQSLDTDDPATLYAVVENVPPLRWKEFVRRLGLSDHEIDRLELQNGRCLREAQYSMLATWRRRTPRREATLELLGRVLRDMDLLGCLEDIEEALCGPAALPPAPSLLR
Outline: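 Read-out: secreted Lucia luciferase luminescence (QUANTI-Luc) from supernatant after 16-18 h, 37 °C, 10 ng/mL rhTNFα. Peptide pretreatment 1 h at 37 °C; 20,000 cells/well, selection antibiotics omitted. IC50 via 4-parameter logistic model against min/max controls.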

CCCC[C@@H]1NC(=O)[C@@H]2CC[C@@H](C2)NC(=O)[C@H]([C@@H](C)c2c[nH]c3c(OC)cccc23)NC(=O)CN(C)C(=O)[C@H](Cc2ccc(OCC(=O)O)cc2)NC(=O)[C@H](Cc2ccc(S(N)(=O)=O)cc2)NC(=O)[C@](C)(CO)NC(=O)[C@H](Cc2c[nH]c3c(C#N)cccc23)NC(=O)[C@H](Cc2ccc(OCC(=O)O)cc2)NC(=O)[C@H](CC(N)=O)NC(=O)[C@H]2C[C@H](OCC(=O)O)CN2C(=O)[C@H](Cc2n[nH]c3ncccc23)NC(=O)[C@@H]2CC[C@@H](O)CN2C(=O)[C@H](Cc2cncnc2)NC1=O [SEQ ID NO. 89] (cyclo([X1][Nle][Ala(pyrimidin-5-yl)][Pip(5R-OH)][X64][dHyp](Carboxymethyl)NY(Carboxymethyl)[Trp(7-CN)][αMeS][Phe(4-SO2NH2)]Y(Carboxymethyl)[Sar][Trp(βS-Me,7-OMe)]))
pKd [1]: 9.74 | pIC50 [2]: 8.92

CCCC[C@@H]1NC(=O)[C@@H]2CC[C@@H](C2)NC(=O)[C@H]([C@@H](C)c2c[nH]c3c(OC)cccc23)NC(=O)CN(C)C(=O)[C@H]([C@H](O)c2ccc(C(N)=O)cc2)NC(=O)[C@H]([C@@H](O)c2ccc(C(N)=O)cc2)NC(=O)[C@](C)(CO)NC(=O)[C@H](Cc2c[nH]c3c(C#N)cccc23)NC(=O)[C@H](Cc2ccc(C(=O)O)cc2)NC(=O)[C@H](CC(N)=O)NC(=O)[C@H]2C[C@H](O)CN2C(=O)[C@H](Cc2c[nH]c3ncccc23)NC(=O)[C@@H]2CC[C@@H](O)CN2C(=O)[C@H](Cc2ccncc2)NC1=O [SEQ ID NO. 90] (cyclo([4Pal][Pip(5R-OH)][Trp(7-aza)][dHyp]N[Phe(4-COOH)][Trp(7-CN)][αMeS][X28][X44][Sar][Trp(βS-Me,7-OMe)][X1][Nle]))
pKd [1]: 9.92 | pIC50 [2]: 8.92

CCCCC[C@@H]1NC(=O)[C@@H]2CC[C@@H](C2)NC(=O)[C@H]([C@@H](C)c2c[nH]c3c(OC)cccc23)NC(=O)CN(C)C(=O)[C@H](Cc2ccc(C(N)=O)cc2)NC(=O)[C@H](Cc2ccc(C(N)=O)cc2)NC(=O)[C@](C)(CO)NC(=O)[C@H](Cc2c[nH]c3c(C#N)cccc23)NC(=O)[C@H](Cc2ccc(C(=O)O)cc2)NC(=O)[C@H](CC(N)=O)NC(=O)[C@H]2C[C@H](O)CN2C(=O)[C@H](Cc2c[nH]c3ccccc23)NC(=O)[C@H]([C@H](C)O)NC(=O)[C@H]([C@@H](C)c2ccncc2)NC1=O [SEQ ID NO. 91] (cyclo([Ahp(2)][4Pal(3S-Me)][aThr]W[dHyp]N[Phe(4-COOH)][Trp(7-CN)][αMeS][Phe(4-CONH2)][Phe(4-CONH2)][Sar][Trp(βS-Me,7-OMe)][X1]))
pKd [1]: 9.62 | pIC50 [2]: 9.05

C=CCC[C@@H]1NC(=O)[C@@H]2CC[C@@H](C2)NC(=O)[C@H]([C@@H](C)c2c[nH]c3c(OC)cccc23)NC(=O)CN(C)C(=O)[C@H](Cc2ccc(C(N)=O)cc2)NC(=O)[C@H](Cc2ccc(C(N)=O)cc2)NC(=O)[C@](C)(CO)NC(=O)[C@H](Cc2c[nH]c3c(Cl)cccc23)NC(=O)[C@H](Cc2ccc(C(=O)O)cc2)NC(=O)[C@H](CC(N)=O)NC(=O)[C@H]2C[C@H](O)CN2C(=O)[C@H](Cc2c[nH]c3ccccc23)NC(=O)[C@@H]2CC[C@@H](O)CN2C(=O)[C@H](Cc2ccncc2)NC1=O [SEQ ID NO. 103] (cyclo([4Pal][Pip(5R-OH)]W[dHyp]N[Phe(4-COOH)][Trp(7-Cl)][αMeS][Phe(4-CONH2)][Phe(4-CONH2)][Sar][Trp(βS-Me,7-OMe)][X1][Gly(But-3-enyl)]))
pKd [1]: 10.30 | pIC50 [2]: 9.10

CCCC[C@@H]1NC(=O)[C@@H]2CC[C@@H](C2)NC(=O)[C@H]([C@@H](C)c2c[nH]c3c(OC)cccc23)NC(=O)CN(C)C(=O)[C@H](Cc2ccc(C(=O)O)cc2F)NC(=O)[C@H](Cc2ccc(C(=O)O)cc2)NC(=O)[C@](C)(CO)NC(=O)[C@H](Cc2c[nH]c3c(Cl)cccc23)NC(=O)[C@H](Cc2ccncc2)NC(=O)[C@H](CC(N)=O)NC(=O)[C@H](CCC(=O)O)N(C)C(=O)[C@H](Cc2c[nH]c3ccccc23)NC(=O)[C@@H]2CNCCN2C(=O)[C@H](Cc2ccncc2)NC1=O [SEQ ID NO. 107] (cyclo([4Pal][Trp(7-Cl)][αMeS][Phe(4-COOH)][Phe(2-F,4-COOH)][Sar][Trp(βS-Me,7-OMe)][X1][Nle][4Pal][Pip(4-aza)]W[NMeE]N))
pKd [1]: 9.52 | pIC50 [2]: 9.00
